One may read the IC50 as the midpoint of a concentration-inhibition curve.

Drawing on patent US8946247B2, “Quinazoline carboxamide azetidines” (Merck Patent GmbH, priority 2010, dated 2015), this text covers IC50 for 13 compounds.

The target in one assay is T1, Akt1 (Homo sapiens, UniProt P31749).
T1 construct: 0.1 ng/ul His-AKT (Full Length), (Invitrogen, Part #P2999, Lot #641228C); His; purchased Invitrogen P2999
Put plainly: AKT/PKB Kinase Assay. The conditions noted are these: His-AKT (Full Length), 160 uM ATP, 90 min at 25 C. Format: biochemical. The protocol: In order to measure AKT inhibition in the Caliper Life Sciences LC3000, a TTP Mosquito liquid handling instrument was used to place 125 nl of the appropriate concentration of inhibitor in 100% DMSO (for a dose response curve calculation) into each well of a 384-well plate. To this reaction components were added to a final volume of 12.5 ul: • 0.1 ng/ul His-AKT (Full Length), (Invitrogen, Part #P2999, Lot #641228C) • 160 uM ATP (Fluke, 02055) • 1 mM DTT (Sigma, D0632) • 1 mM MgCl2 (Sigma, M1028) • 1 uM substrate peptide (sequence FITC-AHA-GRPRTSSFAEG-NH2), synthesized by Tufts Peptide Synthesis service. • 100 mM HEPES pH 7.5 (Calbiochem, 391338) • 0.015% Brij-35 (Sigma, B4184)
(§1) The reaction was incubated for 90 min at 25 C, and then stopped by the addition of 70 ul of Stop buffer (100 mM HEPES pH 7.5, 0.015% Brij-35, 10 mM EDTA (Sigma, E7889)).
The plate was read on a Caliper LC 3000 in an Off-Chip mobility shift assay format, using the following parameters for a 12-sipper chip: screening pressure −2.3 psi, upstream voltage −500, and downstream voltage −3000.
These conditions cause unphosphorylated substrate and phosphorylated product peptide to resolve as separate peaks allowing direct measurement of percentage of conversion of substrate to product. The percent conversion was plotted against concentration of inhibitor to produce a sigmoidal dose response curve, from which an IC50 was calculated.

A further assay relates to pS6 MDA-MB-468. Put plainly: Cellular Activity Assay (phospho-S6 in MDA-MB-468 cells). Format: cell-based. The conditions noted are these: Homo sapiens, 2 hr compound incubation, percent pS6-positive cells. As for the experimental part: MDA-MB-468 cells were grown in DMEM containing glutamine supplemented with 10% Fetal Bovine Serum (FBS) and 1× antibiotics. Cells were maintained by splitting 1:3 twice a week.
For the assay, cells were plated the evening before at a density of 4000 cells per well in black polyD lysine coated 384 well plates. Cells were incubated overnight (16 to 20 hours) in growth media. Compounds at an appropriate concentration were added to the wells and incubated for 2 hr. Controls included: i) no primary, ii) rabbit isotype, iii) propidium iodide (red) only and iv) anti-phospho-S6 antibody alone (green only). Cells were then fixed in 4% paraformaldehyde for 15-20 minutes at room temperature, then washed 3×80 ul with PBS.
50 ul 10% normal goat serum (NGS) with 0.2% triton X 100 in PBS were added and incubated for 30 to 60 minutes at room temperature. Anti-phospho-S6 antibody was diluted 1:800 2% with NGS in 0.2% TritonX-100 and 30 ul added to appropriate wells. The wells were incubated overnight at 4 degrees Celsius.
Then the wells were washed with 3×80 uL PBS. The secondary green fluorescence labeled antibody (Alexa Fluor® 488 F(ab′)2 fragment goat Anti-rabbit IgG (H+L)), was diluted 1:1500 in 2% NGS with 0.2% TritonX-100, and 30 ul were added to the appropriate wells which were then incubated in the dark at room temperature for 60 minutes. Then they were washed with 4×80 ul PBS. Propidium iodide (1.5 mM stock) was diluted 1:1000 in PBS, and 50 ul were added to the appropriate wells and incubated for 30 minutes at room temperature in the dark. Propidium iodide was not washed out. Plates were read on the Acumen Explorer.
Red and green cell populations were determined using controls. The number of green cells (pS6) and total number of cells (red) were then counted and the percentage of green cells was calculated. Percent positive cell data was plotted on a log scale against concentration of compounds and IC50 values were calculated from dose response curves.

The next assay deals with T2, Aurora B (Homo sapiens, UniProt Q96GD4).
T2 construct: GST-Aurora B (1-344 amino acids); GST (N); purchased Carna Biosciences 05-102
Put plainly: Aurora B Kinase Assay. The conditions noted are these: GST-Aurora B (1-344), 10 uM ATP, 90 min at 25 C. Format: biochemical. As for the experimental part:
To measure inhibitor activity of Aurora B inhibitors in the Caliper Life Sciences LC3000, a TTP Mosquito liquid handling instrument was used to place 0.25 ul of the appropriate concentration of inhibitor in 100% DMSO (for a dose response curve calculation) into each well of a 384-well plate. To this reaction components was added to a final volume of 25 ul: • 0.1 ng/ul GST-Aurora B (1-344 amino acids), (Carna Biosciences 05-102. N-terminal GST fusion with His tagged INCEP, accession number Q96GD4). • 10 uM ATP (Fluka, 02055) • 1 mM DTT (Sigma, D0632) • 1 mM MgCl2 (Sigma, M1028) • 1 uM substrate peptide (sequence FITC-LRRASLG-(CONH2), synthesized by Tufts Peptide Synthesis service. • 100 mM HEPES pH 7.5 (Calbiochem, 391338) • 0.015% Brij-35 (Sigma, B4184)
as §1
The plate was read on a Caliper LC 3000 in an Off-Chip mobility shift assay format, using the following parameters for a 12-sipper chip: screening pressure −1.8 psi, upstream voltage −2700, downstream voltage −1000. These conditions caused unphosphorylated substrate and phosphorylated product peptide to resolve as separate peaks allowing direct measurement of percentage of conversion of substrate to product. The percent conversion was plotted against concentration of inhibitor to produce a sigmoidal dose response curve, from which an IC50 was calculated using XLFit for Microsoft Excel.

A further assay addresses T3, P70S6K (T412E mutant) (Homo sapiens, UniProt P23443, T412E).
T3 construct: purchased Millipore
Put plainly: p70S6K Enzyme Assay. It is filed as biochemical. As to conditions: 24 μM ATP, 90 min at 25° C., Caliper mobility shift. The protocol:
p70S6K inhibitor compounds were diluted and plated in 96 well plates. A reaction mixture including the following components were then added to the compound plate to initiate the enzyme reaction; P70S6K (3 nM, T412E mutant, Millipore) was mixed with 24 μM ATP in an assay buffer containing 100 mM Hepes (pH 7.5), 5 mM MgCl2, 1 mM DTT, 0.015% Brij and 1 μM of the substrate peptide FITC-AHA-AKRRRLSSLRA-OH (derived from the S6 ribosomal protein sequence, FITC=fluorescein isothiocyanate, AHA=6-aminohexanoic acid). The reaction was incubated for 90 min at 25° C., before the addition of 10 mM EDTA to stop the reaction. The proportion of substrate and product (phosphorylated) peptide was analysed on a Caliper Life Sciences Lab Chip 3000, using a pressure of −1.4 psi, and upstream and downstream voltages of −3000 and −700 respectively. Product peaks were resolved before substrate peaks on the resulting chromatograms.
To assess the inhibitory potential of the compounds, IC50-values were determined, as shown in Chemical Synthesis section above.

T3 sequence (P23443 1-421 T412E limits assumed): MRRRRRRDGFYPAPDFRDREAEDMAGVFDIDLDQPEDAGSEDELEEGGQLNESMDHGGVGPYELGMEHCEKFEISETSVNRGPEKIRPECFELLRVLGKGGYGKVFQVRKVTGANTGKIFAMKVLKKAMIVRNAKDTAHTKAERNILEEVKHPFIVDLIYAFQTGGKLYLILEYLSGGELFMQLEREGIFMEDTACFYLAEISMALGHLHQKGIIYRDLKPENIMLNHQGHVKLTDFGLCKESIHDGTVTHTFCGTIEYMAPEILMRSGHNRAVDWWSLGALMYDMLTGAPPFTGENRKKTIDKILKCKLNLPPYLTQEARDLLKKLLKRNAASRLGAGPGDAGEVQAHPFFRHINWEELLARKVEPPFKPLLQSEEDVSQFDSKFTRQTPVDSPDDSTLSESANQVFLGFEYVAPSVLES
T2 sequence (Q96GD4 whole entry, the tested form may be a part): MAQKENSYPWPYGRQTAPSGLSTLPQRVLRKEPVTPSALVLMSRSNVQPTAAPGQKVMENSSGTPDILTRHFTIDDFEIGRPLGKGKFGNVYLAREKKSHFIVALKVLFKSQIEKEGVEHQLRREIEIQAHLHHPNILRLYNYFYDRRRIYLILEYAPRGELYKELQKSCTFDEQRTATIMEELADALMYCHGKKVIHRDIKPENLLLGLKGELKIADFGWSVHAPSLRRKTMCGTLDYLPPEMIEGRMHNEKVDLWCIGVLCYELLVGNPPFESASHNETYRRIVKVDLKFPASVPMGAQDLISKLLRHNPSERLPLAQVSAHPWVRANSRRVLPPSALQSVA
T2 sequence (Q9NQS7 803-918 partner limits assumed): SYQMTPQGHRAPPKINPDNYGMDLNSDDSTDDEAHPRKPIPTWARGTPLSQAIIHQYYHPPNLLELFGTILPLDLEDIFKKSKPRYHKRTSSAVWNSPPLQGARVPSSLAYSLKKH
T1 sequence (P31749 whole entry): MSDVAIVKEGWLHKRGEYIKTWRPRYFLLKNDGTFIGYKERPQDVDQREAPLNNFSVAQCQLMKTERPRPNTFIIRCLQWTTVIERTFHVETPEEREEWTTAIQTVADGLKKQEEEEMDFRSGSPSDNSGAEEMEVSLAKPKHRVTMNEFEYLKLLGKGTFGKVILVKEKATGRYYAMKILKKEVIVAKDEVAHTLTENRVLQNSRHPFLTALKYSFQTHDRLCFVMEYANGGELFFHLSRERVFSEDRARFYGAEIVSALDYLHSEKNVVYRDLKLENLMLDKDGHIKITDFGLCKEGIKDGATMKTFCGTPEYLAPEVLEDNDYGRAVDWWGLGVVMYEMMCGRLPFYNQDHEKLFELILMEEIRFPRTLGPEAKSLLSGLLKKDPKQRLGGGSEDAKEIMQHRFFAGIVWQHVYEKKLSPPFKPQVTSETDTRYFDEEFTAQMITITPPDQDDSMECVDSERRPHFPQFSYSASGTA

Take `Cc1cc([C@@H](CN2CCC2)Nc2ncnc3c(C(N)=O)cccc23)ccc1F` [Example 42, 4-[(S)-2-Azetidin-1-yl-1-(4-fluoro-3-methyl-phenyl)-ethylamino]-quinazoline-8-carboxylic acid amide]: the IC50 at Akt1 came out at 23 nM; with pS6 MDA-MB-468 it was 32 nM; on Aurora B, 120 nM; on P70S6K (T412E mutant) it was 1.6 nM.

As to `NC(=O)c1cccc2c(N[C@H](CN3CCC3)c3cc(F)ccc3F)ncnc12` [Example 26, 4-[(S)-2-Azetidin-1-yl-1-(2,5-di-fluoro-phenyl)-ethylamino]-quinazoline-8-carboxylic acid amide], the IC50 on Akt1 amounted to 98 nM; in the assay on pS6 MDA-MB-468 it was 359 nM; on Aurora B, 230 nM; on P70S6K (T412E mutant), 5.3 nM.

For `NC(=O)c1cccc2c(N[C@H](CN3CCC3)c3ccc(F)cc3)ncnc12` [Example 3, 4-[(S)-2-Azetidin-1-yl-1-(4-fluorophenyl)-ethylamino]-quinazoline-8-carboxylic acid amide], the IC50 at Akt1 stood at 23 nM; in the assay with pS6 MDA-MB-468, 103 nM; against Aurora B, 41 nM; on P70S6K (T412E mutant), 7.8 nM.

Consider `NC(=O)c1cccc2c(N[C@H](CN3CCC3)c3ccc(Cl)cc3F)ncnc12` [Example 14, 4-[(S)-2-Azetidin-1-yl-1-(2-fluoro-4-chlorophenyl)-ethylamino]-quinazoline-8-carboxylic acid amide], for which the IC50 on Akt1 worked out at 25 nM; with pS6 MDA-MB-468 it was 86 nM; at Aurora B it was 69 nM; on P70S6K (T412E mutant), 1.1 nM.

On to `NC(=O)c1cccc2c(N[C@H](CN3CCC3)c3ccc(OC(F)(F)F)cc3)ncnc12` [Example 30, 4-[(S)-2-Azetidin-1-yl-1-(4-trifluoromethoxy-phenyl)-ethylamino]-quinazoline-8-carboxylic acid amide], for which the IC50 came out at 187 nM against Akt1, 199 nM in the assay with pS6 MDA-MB-468, 370 nM at Aurora B and 1.7 nM at P70S6K (T412E mutant).

Consider `NC(=O)c1cccc2c(N[C@H](CN3CCC3)c3ccc(Cl)c(C(F)(F)F)c3)ncnc12` [Example 5, 4-[(S)-2-Azetidin-1-yl-1-(4-chloro-3-trifluoromethylphenyl)-ethylamino]-quinazoline-8-carboxylic acid amide], for which the IC50 against Akt1 turned out to be 1.4 nM; in the assay with pS6 MDA-MB-468 it was 11 nM; on Aurora B, 100 nM; on P70S6K (T412E mutant), 0.9 nM.

As to `NC(=O)c1cccc2c(N[C@H](CN3CCC3)c3ccc(F)c(C(F)F)c3)ncnc12` [Example 44, 4-[(S)-2-Azetidin-1-yl-1-(3-difluoromethyl-4-fluoro-phenyl)-ethylamino]-quinazoline-8-carboxylic acid amide], the IC50 was found to be 7.3 nM against Akt1, 41 nM in the assay with pS6 MDA-MB-468, 75 nM at Aurora B and 1.7 nM on P70S6K (T412E mutant).

`NC(=O)c1cccc2c(N[C@H](CN3CCC3)c3ccc4c(c3)OCO4)ncnc12` [Example 20, 4-[(S)-2-Azetidin-1-yl-1-(1-benzo[1,3]dioxol)-ethylamino]-quinazoline-8-carboxylic acid amide]: the IC50 worked out at 120 nM against Akt1, 68 nM in the assay with pS6 MDA-MB-468, 300 nM at Aurora B and 1.7 nM at P70S6K (T412E mutant).

For `N#Cc1cc([C@@H](CN2CCC2)Nc2ncnc3c(C(N)=O)cccc23)ccc1F` [Example 39, 4-[(S)-2-Azetidin-1-yl-1-(3-cyano-4-fluorophenyl)-ethylamino]-quinazoline-8-carboxylic acid amide], the IC50 is 83 nM at Akt1, 246 nM with pS6 MDA-MB-468, 650 nM at Aurora B and 3.3 nM on P70S6K (T412E mutant).

Turning to `NC(=O)c1cccc2c(N[C@H](CN3CCC3)c3ccc(F)c(F)c3)ncnc12` [Example 4, 4-[(S)-2-Azetidin-1-yl-1-(3,4-difluorophenyl)-ethylamino]-quinazoline-8-carboxylic acid amide], the IC50 at Akt1 was 4.1 nM; with pS6 MDA-MB-468 it was 74 nM; against Aurora B, 56 nM; on P70S6K (T412E mutant), 1.2 nM.

As to `NC(=O)c1cccc2c(N[C@H](CN3CCC3)c3ccc(F)cc3F)ncnc12` [Example 15, 4-[(S)-2-Azetidin-1-yl-1-(2,4-difluorophenyl)-ethylamino]-quinazoline-8-carboxylic acid amide], the half-maximal inhibitory concentration (IC50) on Akt1 turned out to be 84 nM; in the assay on pS6 MDA-MB-468 it was 144 nM; on Aurora B, 200 nM; at P70S6K (T412E mutant) it was 6 nM.

For `NC(=O)c1cccc2c(N[C@H](CN3CCC3)c3cc(F)c(F)cc3F)ncnc12` [Example 18, 4-[(S)-2-Azetidin-1-yl-1-(2,4,5-trifluorophenyl)-ethylamino]-quinazoline-8-carboxylic acid amide], the IC50 worked out at 36 nM at Akt1, 85 nM with pS6 MDA-MB-468, 220 nM on Aurora B and 3.8 nM at P70S6K (T412E mutant).

As to `COc1c(F)cc([C@@H](CN2CCC2)Nc2ncnc3c(C(N)=O)cccc23)cc1F` [Example 38, 4-[(S)-2-Azetidin-1-yl-1-(3,5-difluoro-4-methoxyphenyl)-ethylamino]-quinazoline-8-carboxylic acid amide], the IC50 on Akt1 amounted to 140 nM; in the assay with pS6 MDA-MB-468 it was 113 nM; on Aurora B, 280 nM; on P70S6K (T412E mutant), 1.8 nM.
